According to patent publication EP0570920A1, “Probe for cannabinoid receptors” (YISSUM RESEARCH AND DEVELOPMENT COMPANY OF THE HEBREW …, priority 1992, dated 1993):
Like-named read-outs stand apart in the source and are kept apart here.

Legend:
[1] = in vivo; cited from earlier work
[2] = Solubility of drug in BSA vehicle for binding assay; conditions: at concentrations above 5 uM in 5 mg/ml BSA
cannabinoid receptor [3] = molecular target: T1, cannabinoid receptor (Rattus norvegicus, UniProt P20272); experiment: Ligand binding assay with [³H]7, centrifugation assay on synaptosomal membrane preparation
T1 construct: a synaptosomal membrane preparation derived from rat whole brain, without brainstem; from tissue; host or cells: rat whole brain without brainstem, synaptosomal membranes

[4] = cited from earlier work
[5] = Discrimination tests / in vivo experiment comparing (3), (7) and Δ¹-THC
cannabinoid receptor [6] = molecular target: T1, cannabinoid receptor; conditions: cited from earlier work
[7] = pigeons; cited from earlier work
[8] = cited from earlier work; remark: listed apart in the source

T1 sequence (P20272 whole entry): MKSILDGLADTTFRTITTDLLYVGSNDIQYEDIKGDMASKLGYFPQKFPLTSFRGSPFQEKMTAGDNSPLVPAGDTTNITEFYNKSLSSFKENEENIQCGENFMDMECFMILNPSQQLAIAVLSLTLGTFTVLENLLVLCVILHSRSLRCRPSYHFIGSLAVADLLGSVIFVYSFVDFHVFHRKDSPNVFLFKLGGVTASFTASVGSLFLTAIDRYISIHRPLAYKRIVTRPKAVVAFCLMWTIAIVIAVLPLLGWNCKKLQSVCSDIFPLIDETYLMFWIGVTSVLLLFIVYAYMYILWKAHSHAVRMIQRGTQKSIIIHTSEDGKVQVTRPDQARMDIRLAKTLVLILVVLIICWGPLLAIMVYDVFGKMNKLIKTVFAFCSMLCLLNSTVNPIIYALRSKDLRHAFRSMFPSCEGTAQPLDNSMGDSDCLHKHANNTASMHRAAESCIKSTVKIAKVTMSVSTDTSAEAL

CCCCCc1cc(O)c2c(c1)OC(C)(C)C1CCC(C)CC21 (stereo not drawn) [Compound 5a]
cannabimimetic activity relative to axial epimer (6a) [1]: more active

CCCCCc1cc(O)c2c(c1)OC(C)(C)[C@@H]1CCC(C)=C[C@@H]21 [Δ¹-THC, Δ-tetrahydrocannabonol]
solubility in vehicle [2]: partial insolubility

CCCCCCC(C)(C)c1cc(O)c2c(c1)OC(C)(C)[C@H]1CC=C(CO)C[C@H]21 [Compound 4]
Ki (cannabinoid receptor [3]): 466 nM | fold less potent than its enantiomer compound 3 (HU-210) in binding (cannabinoid receptor [3]; displacement of [³H]7): 2500 fold | potency relative to (3) in in vivo pharmacological tests ([4]; in vivo): several thousand times less potent

CCCCCCC(C)(C)c1cc(O)c2c(c1)OC(C)(C)C1CCC(CO)CC21 (stereo not drawn) [Compound 7, 7-hydroxy-hexahydrocannabinol-5'-dimethyl heptyl homologue]
times more potent than (3) in the binding experiments (cannabinoid receptor [3]): about 4 times | times more potent than Δ¹-THC on binding (cannabinoid receptor [3]): about 1000 times | binding potency compared with CP-55940 (cannabinoid receptor [3]; Fig. 1): more potent than CP-55940 | binding capacity (cannabinoid receptor [3]; homologous displacement experiments with [³H]7): 4.41 ± 0.08 pmol/mg protein | Kd (cannabinoid receptor [3]; homologous displacement studies, [³H]7, rat whole brain synaptosomal membranes): 0.045 nM | activity in the discrimination tests, (3) versus (7) [5]: essentially equivalent in activity | times more potent than Δ¹-THC in the in vivo experiment [5]: 125 times

CCCCCCC(C)(C)c1cc(O)c2c(c1)OC(C)(C)[C@@H]1CC=C(CO)C[C@@H]21 [Compound 3]
Ki (cannabinoid receptor [3]): 0.188 nM | activity in the discrimination tests, (3) versus (7) [5]: essentially equivalent in activity | potency ratio of 3 to 4 for binding to the cannabinoid receptor (cannabinoid receptor [6]): circa 1500 | competition for the specific binding of [³H]1 (cannabinoid receptor [6]; membranes from rat brain): completes fully | Ki (cannabinoid receptor [6]; read-out: K, heterologous displacement of [³H]1, membranes from rat brain): 0.234 nM | times more potent than Δ¹-THC in pharmacological tests ([4]; various animal species): 100-800 times | times more potent than Δ¹-THC in drug discrimination [7]: 80 times

7-hydroxyhexahydrocannabinols [Compound 5b]
times more active than Δ¹-THC in discrimination tests ([8]; depending on the animal used (pigeon or rat) and on the timing of measurement): 3-17 times | activity in discrimination tests relative to axial epimer (6b) ([8]; rat, in vivo): considerably more active
